Structures can show the parent of a compound that is named as a salt.
Target: T1, recombinant human SIRT1 (Homo sapiens, UniProt Q96EB6)
T1 sequence (Q96EB6 1-747): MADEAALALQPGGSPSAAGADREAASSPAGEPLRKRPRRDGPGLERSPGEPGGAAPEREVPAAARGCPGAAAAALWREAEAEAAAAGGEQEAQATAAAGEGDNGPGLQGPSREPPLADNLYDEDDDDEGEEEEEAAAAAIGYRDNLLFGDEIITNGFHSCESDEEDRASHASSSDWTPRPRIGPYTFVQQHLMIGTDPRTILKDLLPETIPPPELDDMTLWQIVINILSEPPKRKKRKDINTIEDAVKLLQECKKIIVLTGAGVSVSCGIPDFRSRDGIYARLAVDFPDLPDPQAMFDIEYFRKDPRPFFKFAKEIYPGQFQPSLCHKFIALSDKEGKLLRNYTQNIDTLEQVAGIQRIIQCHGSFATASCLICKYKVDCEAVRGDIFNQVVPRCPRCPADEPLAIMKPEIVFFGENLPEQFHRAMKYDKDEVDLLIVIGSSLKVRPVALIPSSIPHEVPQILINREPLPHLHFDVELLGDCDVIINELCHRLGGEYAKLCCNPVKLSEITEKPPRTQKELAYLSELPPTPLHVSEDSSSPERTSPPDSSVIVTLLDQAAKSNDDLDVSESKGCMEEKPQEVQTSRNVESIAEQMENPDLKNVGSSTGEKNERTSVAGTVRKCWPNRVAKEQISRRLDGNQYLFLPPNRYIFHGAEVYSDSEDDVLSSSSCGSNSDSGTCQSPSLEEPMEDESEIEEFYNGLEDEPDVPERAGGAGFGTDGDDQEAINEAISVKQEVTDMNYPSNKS
Assay: SIRT1 fluorescent deacetylation assay (p53-382 acetylated peptide substrate)
Format: biochemical
Details: Supplementary Table 1, stilbenes and chalcones; 100 μM, 25 μM NAD+, 25 μM p53-382 acetylated peptide

| Ratio to Control Rate Mean ± SE | SMILES |
| --- | --- |
| 2.80 ± 0.32 | O=C(/C=C/c1ccc(O)c(O)c1)c1c(O)cc(O)cc1O [3,4,2′,4′,6′-Pentahydroxychalcone] |
| 1.34 ± 0.17 | O=C(/C=C/c1ccccc1)c1ccccc1 [Chalcone] |
| 1.94 ± 0.21 | COc1ccc(/C=C/c2cc(O)cc(O[C@@H]3O[C@H](CO)[C@@H](O)[C@H](O)[C@H]3O)c2)cc1 [Deoxyrhapontin, 3,5-Dihydroxy-4′-methoxystilbene 3-O-β-D-glucoside] |

Same assay, conditions: Supplementary Table 2, flavones part I; 100 μM, 25 μM NAD+, 25 μM p53-382 acetylated peptide

| Ratio to Control Rate Mean ± SE | SMILES |
| --- | --- |
| 2.10 ± 0.22 | O=c1c(O)c(-c2ccc(O)cc2O)oc2ccc(O)cc12 [3,6,2′,4′-Tetrahydroxyflavone] |
| 5.45 ± 0.57 | O=c1c(O)c(-c2ccc(O)c(O)c2)oc2ccc(O)cc12 [3,6,3′,4′-Tetrahydroxyflavone] |
| 6.05 ± 0.98 | O=c1cc(-c2cc(O)c(O)c(O)c2)oc2cc(O)cc(O)c12 [5,7,3′4′,5′-Pentahydroxyflavone] |
| 3.06 ± 0.29 | O=c1cc(-c2ccc(O)cc2)oc2cc(O)c(O)c(O)c12 [6-Hydroxyapigenin, 5,6,7,4′-Tetrahydroxyflavone] |
| 3.62 ± 0.56 | O=c1cc(-c2cc(O)c(O)c(O)c2)oc2cc(O)ccc12 [7,3′,4′,5′-Tetrahydroxyflavone] |
| 1.91 ± 0.17 | O=c1cc(-c2ccc(O)cc2)oc2cc(O)ccc12 [7,4′-Dihydroxyflavone] |
| 2.77 ± 0.40 | O=c1cc(-c2ccc(O)cc2)oc2cc(O)cc(O)c12 [Apigenin, 5,7,4′-Trihydroxyflavone] |

Same assay, conditions: Supplementary Table 3, flavones part II; 100 μM, 25 μM NAD+, 25 μM p53-382 acetylated peptide

| Ratio to Control Rate Mean ± SE | SMILES |
| --- | --- |
| 1.74 ± 0.27 | O=c1c(O)c(-c2cccc(O)c2O)oc2ccc(O)cc12 [3,6,2′,3′-Tetrahydroxyflavone] |
| 0.826 ± 0.074 | O=c1c(O)c(-c2cc(O)c(O)c(O)c2)oc2cc(O)ccc12 [3,7,3′,4′,5′-Pentahydroxyflavone] |
| 1.73 ± 0.12 | O=c1cc(-c2ccc(O)cc2)oc2ccccc12 [4′-Hydroxyflavone] |
| 1.56 ± 0.15 | O=c1cc(-c2ccc(O)cc2)oc2cccc(O)c12 [5,4′-Dihydroxyflavone] |
| 1.51 ± 0.18 | O=c1cc(-c2ccccc2)oc2cc(O)cc(O)c12 [5,7-Dihydroxyflavone] |
| 1.22 ± 0.19 | O=c1cc(-c2ccccc2)oc2cccc(O)c12 [5-Hydroxyflavone] |
| 1.91 | O=c1c(O)c(-c2ccc(O)cc2)oc2c(O)c(O)ccc12 [7,8,3,4′-Tetrahydroxyflavone] |
| 1.41 ± 0.23 | O=c1cc(-c2ccccc2)oc2ccccc12 [Flavone] |

| SMILES | Ratio to Control Rate Mean ± SE |
| --- | --- |
| O=c1c(O)c(-c2ccc(O)c(O)c2)oc2c(O)c(O)cc(O)c12 [Gossypetin, 3,5,7,8,3′,4′-Hexahydroxyflavone] | 0.723 ± 0.062 |

Same assay, conditions: Supplementary Table 4, isoflavones, flavanones, anthocyanidins; 100 μM, 25 μM NAD+, 25 μM p53-382 acetylated peptide

| Ratio to Control Rate Mean ± SE | SMILES |
| --- | --- |
| 1.97 ± 0.22 | O=C1c2c(O)cc(O)cc2OC(c2ccc(O)c(O)c2)C1O (stereo not drawn) [3,5,7,3′,4′-Pentahydroxyflavanone] |
| 1.109 ± 0.026 | O=c1c(-c2ccc(O)cc2)coc2cc(O)cc(O)c12 [5,7,4′-Trihydroxyisoflavone] |
| 2.28 ± 0.74 | O=c1c(-c2ccc(O)cc2)coc2cc(O)ccc12 [Daidzein, 7,4′-Dihydroxyisoflavone] |
| 1.92 ± 0.24 | O=C1CC(c2ccccc2)Oc2ccccc21 (stereo not drawn) [Flavanone] |

| SMILES | Ratio to Control Rate Mean ± SE |
| --- | --- |
| Oc1cc(O)c2cc(O)c(-c3ccc(O)c(O)c3)[o+]c2c1.[Cl-] [Cyanidin chloride, 3,5,7,3′,4′-Pentahydroxyflavylium chloride] | 0.451 ± 0.015 |
| Oc1cc(O)c2cc(O)c(-c3cc(O)c(O)c(O)c3)[o+]c2c1.[Cl-] [Delphinidin chloride, 3,5,7,3′,4′,5′-Hexahydroxyflavylium chloride] | 0.4473 ± 0.0071 |

Same assay, conditions: Supplementary Table 5, catechins; 100 μM, 25 μM NAD+, 25 μM p53-382 acetylated peptide

| Ratio to Control Rate Mean ± SE | SMILES |
| --- | --- |
| 0.32 ± 0.12 | O=C(O[C@@H]1Cc2c(O)cc(O)cc2O[C@@H]1c1cc(O)c(O)c(O)c1)c1cc(O)c(O)c(O)c1 [(−)-Epigallocatechin Gallate] |

Same assay, conditions: Supplementary Table 6, free radical protective compounds; 100 μM, 25 μM NAD+, 25 μM p53-382 acetylated peptide

| Ratio to Control Rate Mean ± SE | SMILES |
| --- | --- |
| 1.030 ± 0.055 | Cc1c(C)c2c(c(C)c1O)CCC(C)(CN1CCN(c3cc(N4CCCC4)nc(N4CCCC4)n3)CC1)O2.Cl.Cl (single isomer, unassigned; (-)) [Compound U-83836E, (−)-2-((4-(2,6-di-1-Pyrrolidinyl-4-pyrimidinyl)-1-piperazinyl)methyl)-3,4-dihydro-2,5,7,8-tetramethyl-2H-1-benzopyran-6-ol-2HCl, reference compound] |
| 1.075 ± 0.0026 | Nc1c(Br)cc(Br)cc1CN[C@H]1CC[C@H](O)CC1 [Ambroxol, trans-4-(2-Amino-3,5-dibromobenzylamino)cyclohexane.HCl, reference compound] |
| 1.80 ± 0.16 | O=C(/C=C/c1ccc(O)c(O)c1)Oc1ccccc1 [Caffeic Acid Phenyl Ester] |

Same assay, conditions: Supplementary Table 8; compound at 10 μM, 25 μM NAD+, 25 μM p53-382 acetylated peptide

| Ratio to Control Rate Mean ± SE | SMILES |
| --- | --- |
| 2.30 ± 0.31 | O=c1oc2cc(O)ccc2c2oc3cc(O)ccc3c12 [Coumestrol] |
| 1.737 ± 0.082 | O=c1ccc2cc(O)c(O)cc2o1 [Esculetin] |

Same assay, conditions: Table 9, resveratrol analogs; 100 μM, 25 μM NAD+, 25 μM p53-382 acetylated peptide

| Ratio to Control Rate Mean ± SE | SMILES |
| --- | --- |
| 9.373 ± 0.014 | CCc1ccc(/C=C/c2cc(O)cc(O)c2)cc1 [BML-225, 3,5-Dihydroxy-4′-ethyl-trans-stilbene] |
| 7.72 ± 0.12 | Cc1ccc(/C=C/c2cc(O)cc(O)c2)cc1 [BML-228, 3,5-Dihydroxy-4′-methyl-trans-stilbene] |

Same assay, conditions: Table 10, resveratrol analogs; 100 μM, 25 μM NAD+, 25 μM p53-382 acetylated peptide

| Ratio to Control Rate Mean ± SE | SMILES |
| --- | --- |
| 6.78 ± 0.22 | O=[N+]([O-])c1ccc(/C=C/c2cc(O)cc(O)c2)cc1 [BML-229, 3,5-Dihydroxy-4′-nitro-trans-stilbene] |
| 6.84 ± 1.26 | CSc1ccc(/C=C/c2cc(O)cc(O)c2)cc1 [BML-230, 3,5-Dihydroxy-4′-thiomethyl-trans-stilbene] |
| 6.01 ± 0.15 | CC(C)c1ccc(/C=C/c2cc(O)cc(O)c2)cc1 [BML-231, 3,5-Dihydroxy-4′-isopropyl-trans-stilbene] |
| 7.24 ± 0.12 | [N-]=[N+]=Nc1ccc(/C=C/c2cc(O)cc(O)c2)cc1 [BML-232, 3,5-Dihydroxy-4′-azido-trans-stilbene] |

Same assay, conditions: Table 11, resveratrol analogs; 100 μM, 25 μM NAD+, 25 μM p53-382 acetylated peptide

| SMILES | Ratio to Control Rate Mean ± SE |
| --- | --- |
| Oc1cccc(/C=C/c2ccccc2)c1 [3-Hydroxystilbene] | 2.357 ± 0.074 |
| Oc1cc(O)cc(/C=C/c2ccc3ccccc3c2)c1 [BML-218, (E)-1-(3,5-Dihydroxyphenyl)-2-(2-napthyl) ethene] | 3.05 ± 0.37 |
| CC(=O)Oc1cc(O)cc(/C=C/c2ccc(O)cc2)c1 [BML-227, 3,4′-Dihydroxy-5-acetoxy-trans-stilbene] | 3.340 ± 0.093 |

Same assay, conditions: Table 12, resveratrol analogs; 100 μM, 25 μM NAD+, 25 μM p53-382 acetylated peptide

| Ratio to Control Rate Mean ± SE | SMILES |
| --- | --- |
| 1.127 ± 0.019 | COc1ccc(/C=C/c2ccccc2)cc1OC [3,4-Dimethoxy-trans-stilbene] |
| 1.88 ± 0.11 | CC(=O)Nc1ccc(/C=C/c2cc(O)cc(O)c2)cc1 [BML-222, 3,5-Dihydroxy-4′-acetamide-trans-stilbene] |
| 1.297 ± 0.042 | Oc1cc(O)cc(/C=C/C2CCCCC2)c1 [BML-224, (E)-1-(3,5-Dihydroxyphenyl)-2-(cyclohexyl) ethene] |
| 2.316 ± 0.087 | COCOc1cc(/C=C/c2ccc(SC)cc2)cc(OCOC)c1 [BML-226, 3,5-Dimethoxymethoxy-4′-thiomethyl-trans-stilbene] |

| SMILES | Ratio to Control Rate Mean ± SE |
| --- | --- |
| Oc1ccc(/C=C/c2ccccc2)cc1O [3,4-Dihydroxy-trans-stilbene] | 1.64 ± 0.10 |

Same assay, conditions: Table 13, resveratrol analogs; 100 μM, 25 μM NAD+, 25 μM p53-382 acetylated peptide

| SMILES | Ratio to Control Rate Mean ± SE |
| --- | --- |
| Oc1ccc(/C=C/c2ccccc2)cc1 [4-Hydroxy-trans-stilbene] | 0.943 ± 0.039 |
| COc1ccc(/C=C/c2ccccc2)cc1 [4-Methoxy-trans-stilbene] | 0.840 ± 0.089 |
| O=C(Nc1ccccc1)c1cc(O)cc(O)c1 [BML-219, N-phenyl-(3,5-dihydroxy)benzamide] | 0.902 ± 0.014 |
| Oc1ccc(CCc2cc(O)cc(O)c2)cc1 [Dihydroresveratrol, 1-(3,5-Dihydroxyphenyl)-2-(4-hydroxyphenyl) ethane] | 1.08 ± 0.14 |

Same assay, conditions: polyphenol screen

| SMILES | SIRT1 stimulating activity (in words) |
| --- | --- |
| O=c1c(-c2ccc(O)cc2)coc2cc(O)cc(O)c12 [5,7,4′-Trihydroxyisoflavone] | absence of activity |
| [N-]=[N+]=Nc1ccc(/C=C/c2cc(O)cc(O)c2)cc1 [BML-232, 3,5-Dihydroxy-4′-azido-trans-stilbene] | very similar SIRT1 activating properties to resveratrol |

From patent US20060084135A1, “Compositions for manipulating the lifespan and stress response of cells and organisms” (priority 2003, published 2006)
